# Test results taken from US4965377A, “Process of forming 2-(2-bromo-2-nitroethenyl)-furan” (Great Lakes Chemical Corporation, priority 1989, dated 1990).
# Where two headings read alike, the source gives them in different places.
# How the values were obtained:
# Pseudomonas aeruginosa [1] = assay: Minimum inhibitory concentration against Pseudomonas aeruginosa; format: cell-based
# Experimental: (§1) All of the minimum inhibitory concentration determinations were made in a nutrient-rich growth medium in the following manner. Each organism was inoculated into a nutrient-rich medium that supported its growth. Various concentrations of a solution of the antimicrobial in THFA (90% THFA, 10% antimicrobial) were dosed into the inoculated growth medium; inoculated media were also dosed only with THFA (no antimicrobial)to serve as controls. Two concentrations of antimicrobial were recorded for each organism after growth in the controls was visible (the lowest concentration that prevented growth and the highest concentration that allowed growth); the MIC is reported as the range between these concentrations.
# bacteria and algae = assay: Antimicrobial activity, general statement
# Chlorella pyrenoidosa = assay: Minimum inhibitory concentration against Chlorella pyrenoidosa; format: cell-based; conditions: Auxenochlorella pyrenoidosa
# Experimental: as §1
# Baccilus megaterium = assay: Minimum inhibitory concentration against Bacillus megaterium; format: cell-based; conditions: Priestia megaterium, read-out: Minimum Inhibitory Conc
# Experimental: as §1
# [2] = system: Agrobacterium tumefaciens; assay: Minimum inhibitory concentration against Agrobacterium tumefaciens; format: cell-based; conditions: Table 3, nutrient-rich growth medium, bacterium
# Experimental: as §1
# [3] = Kinetics of disinfection in phosphate buffer (FIG. 5); format: cell-based; conditions: 10 ppm (w/v); phosphate buffer pH 7.0
# Excerpt: FIG. 5 is a graph showing the kinetics of disinfection of 2-(2-bromo-2-nitroethenyl)-furan in comparison to its styrene analogue.
# fungi = assay: Metal working fluid preservation test, fungi; format: cell-based, fungi isolated from metalworking fluids; conditions: soluble oil, semisynthetic, and synthetic fluids; 72 hours, room temperature
# Experimental: (§2) In addition to pulp and paper manufacturing, BNEF can be used as a metal working fluid preservative. […] These tests were performed in the following manner. A typical soluble oil, semi-synthetic, and synthetic metalworking fluid were prepared with tap water at a ratio of 20:1. A field sample of "spoiled" fluid was mixed with a nutrient broth (50/50) and incubated for 24 hours to serve as the bacterial inoculum. Fungi isolated from metalworking fluids were grown on agar plates. The fungi were harvested into a suspension which then served as the fungal inoculum. At time zero, 50 ml aliquots of each fluid were prepared. The fluids were inoculated and dosed with the antimicrobial agent at different concentrations. Time zero bacterial and fungal counts were taken on each control fluid. The samples were then placed on a mechanical shaker (at room temperature) for 72 hours. Bacterial and fungal counts were then performed. The preferred level of BNEF in this application is in the range of 10 to 100 ppm.
# Xanthomonas prunii = assay: Minimum inhibitory concentration against Xanthomonas prunii; format: cell-based; conditions: Table 3, nutrient-rich growth medium, bacterium
# Experimental: as §1
# [4] = ASTM Pulp and Paper efficacy test (ASTM E600-85); format: cell-based; conditions: compared with two commercially successful antimicrobials
# Excerpt: BNEF can also be used as an antimicrobial in pulp and paper manufacturing applications.
# Pseudomonas aeruginosa [5] = assay: Viability of Pseudomonas aeruginosa in phosphate buffered water (FIG. 1); format: cell-based; conditions: after 6 hours of contact, pH 7.2
# Experimental: FIG. 1 illustrates a decrease in the viability of Pseudomonas aeruginosa, a common bacterial genus found in industrial cooling water upon contact with different concentrations of BNEF. The experiment was performed in phosphate buffered water at a pH of 7.2.
# [6] = system: Desulfovibro desulfuricans; assay: Minimum inhibitory concentration against Desulfovibro desulfuricans; format: cell-based; conditions: Table 3; nutrient-rich growth medium; bacterium
# Experimental: as §1
# Saccharomyces sp. = assay: Minimum inhibitory concentration against Saccharomyces sp.; format: cell-based; conditions: Table 3; nutrient-rich growth medium; fungus (yeast)
# Experimental: as §1
# [7] = system: naturally occurring microorganism in industrial cooling water; assay: Efficacy in industrial cooling water, ASTM E-645-85 method (FIG. 4); format: cell-based; conditions: 5 ppm, 24 hours of contact
# Excerpt: FIG. 4 is a graph showing the efficacy of 2-(2-bromo-2-nitroethenyl)-furan in industrial cooling water applications according to the ASTM E-645-85 method.
# BNEF can also be used in water treatment such as for example treatment of industrial cooling water. […] Shorter contact times require a higher concentration of BNEF in the application. Preferably an antimicrobially effective amount of BNEF should be added to reduce the viability of microorganisms by at least 90 percent. It is especially preferred to employ about 1 ppm to about 5 ppm of BNEF.
# Erwina anylovora = assay: Minimum inhibitory concentration against Erwina anylovora; format: cell-based; conditions: Table 3; nutrient-rich growth medium; bacterium
# Experimental: as §1
# Trichoderma virde = assay: Minimum inhibitory concentration against Trichoderma virde; format: cell-based; conditions: Table 3, nutrient-rich growth medium, fungus
# Experimental: as §1
# Xanthomonas palargonii = assay: Minimum inhibitory concentration against Xanthomonas palargonii; format: cell-based; conditions: Table 3, nutrient-rich growth medium, bacterium
# Experimental: as §1
# Asperillus niger = assay: Minimum inhibitory concentration against Asperillus niger; format: cell-based; conditions: Table 3; nutrient-rich growth medium; fungus
# Experimental: as §1
# Erwina caratovora = assay: Minimum inhibitory concentration against Erwina caratovora; format: cell-based; conditions: Table 3; nutrient-rich growth medium; bacterium
# Experimental: as §1
# [8] = system: Photobacterium phosphoreum; assay: Minimum inhibitory concentration against Photobacterium phosphoreum; format: cell-based; conditions: Table 3, nutrient-rich growth medium, bacterium
# Experimental: as §1
# Rhizoctonia sp. = assay: Minimum inhibitory concentration against Rhizoctonia sp.; format: cell-based; conditions: Table 3, nutrient-rich growth medium, fungus
# Experimental: as §1
# bacteria = assay: Metal working fluid preservation test, bacteria (FIG. 3); format: cell-based, bacteria from spoiled metal working fluid; conditions: soluble oil, semisynthetic, and synthetic fluids; 72 hours, room temperature
# Experimental: as §2
# Alternaria solani = assay: Minimum inhibitory concentration against Alternaria solani; format: cell-based; conditions: Table 3, nutrient-rich growth medium, fungus
# Experimental: as §1
# Erwina chysanthemi = assay: Minimum inhibitory concentration against Erwina chysanthemi; format: cell-based; conditions: Table 3; nutrient-rich growth medium; bacterium
# Experimental: as §1
# [9] = system: Xanthomonas poinsettiacola; assay: Minimum inhibitory concentration against Xanthomonas poinsettiacola; format: cell-based; conditions: Table 3, nutrient-rich growth medium, bacterium
# Experimental: as §1
# Staphylococcus aureus = assay: Minimum inhibitory concentration against Staphylococcus aureus; format: cell-based; conditions: Table 3, nutrient-rich growth medium, bacterium
# Experimental: as §1
# Pseudomonas aeruginosa [10] = assay: Contact time required for 99.9% reduction in viability of Pseudomonas aeruginosa in water; format: cell-based
# Experimental: Virtually all modern water treatment applications are alkaline. Even in an alkaline condition, BNEF is quite active. Data in Table 2 show the contact time of BNEF required for a 99.9% reduction in Viability of Pseudomonas aeruginosa in water. Several pure culture cell suspensions of Pseudomonas aeruginosa were prepared in phosphate-buffered water that had been adjusted to pH 7.0 or pH 8.1. The initial concentration of viable cells was determined by counting colony forming-units in the standard spread plate method. A tetrahydrofurfuryl alcohol (THFA) solution containing the antimicrobial (90% THFA, 10% antimicrobial) was added to cell suspensions at each pH such that 10 ppm of the antimicrobial was dosed. Similarly, THFA was added without antimicrobial to cell suspensions at each pH value to serve as no-treatment controls. The concentration of viable cells was then determined at regular time intervals for all of the cell suspensions until at least 99.9% reduction in viability (compared to the controls) was achieved by the antimicrobial treatment.
# [11] = Table 4, analogues, read-out: MIC Against Pseudomonas aeruginosa
# [12] = Table 1, Chlorella pyrenoidosa, read-out: Minimum Inhibitory Conc
# [13] = Table 1, read-out: Minimum Inhibitory Conc
# [14] = read-out: Minimum Inhibitory Conc
structure (smiles),measurement,setting,value
O=[N+]([O-])C(Br)=Cc1cccs1 [2-(2-bromo-2-nitroethenyl)-thiophene],MIC,Pseudomonas aeruginosa [1]; [11],21 to 42 µg/mL
"O=[N+]([O-])C=Cc1ccco1 [2-nitro-1-(2-furyl)ethylene, reference compound]",antimicrobial activity relative to BNEF,bacteria and algae; background statement,lower antimicrobial activity
same,MIC,Chlorella pyrenoidosa; [12],16 to 63 µg/mL
same,MIC,"Baccilus megaterium; Table 1, Baccilus megaterium",63 to 125 µg/mL
same,MIC,Pseudomonas aeruginosa [1]; [13],63 to 125 µg/mL
O=CC=Cc1ccco1 [3-(2-furyl)acrolein],MIC,Chlorella pyrenoidosa; [14],16 to 63 µg/mL
same,MIC,Baccilus megaterium,250 to 500 µg/mL
same,MIC,Pseudomonas aeruginosa [1]; [14],250 to 500 µg/mL
O=[N+]([O-])C(Br)=Cc1ccc(Br)o1 [5-bromo-2-(2-bromo-2-nitroethenyl)-furan],MIC,Pseudomonas aeruginosa [1]; [11],10 to 20 µg/mL
Cc1ccc(C=C(Br)[N+](=O)[O-])o1 [5-methyl-2-(2-bromo-2-nitroethenyl)-furan],MIC,Pseudomonas aeruginosa [1]; [11],21 to 42 µg/mL
O=[N+]([O-])C(Br)=Cc1ccc([N+](=O)[O-])o1 [5-nitro-2-(2-bromo-2-nitroethenyl)-furan],MIC,Pseudomonas aeruginosa [1]; read-out: MIC Against Pseudomonas aeruginosa,8 to 16 µg/mL
O=Cc1ccc([N+](=O)[O-])o1 [5-nitro-2-furaldehyde],MIC,Chlorella pyrenoidosa; [12],4 to 16 µg/mL
same,MIC,"Baccilus megaterium; Table 1, Baccilus megaterium",3 to 6 µg/mL
same,MIC,Pseudomonas aeruginosa [1]; [13],6 to 12 µg/mL
"O=[N+]([O-])C(Br)=Cc1ccco1 [BNEF, 2-(2-bromo-2-nitroethenyl)-furan]",MIC,[2],0.5 to 1 µg/mL
same,effectiveness compared to β-bromo-β-nitrostyrene,[3],as effective as an antimicrobial in water treatment application as β-bromo-β-nitrostyrene
same,effectiveness in metal working fluids against fungi,fungi,effective
same,MIC,Xanthomonas prunii,2 to 5 µg/mL
same,antimicrobial activity,bacteria and algae; summary of Table 1,active at very low concentrations
same,activity in Pulp and Paper efficacy test,[4],at least as active as two commercially successful antimicrobials
same,concentration required to eliminate 99.9% of the test inoculum,Pseudomonas aeruginosa [5],about 10 ppm
same,MIC,[6],< 2 µg/mL
same,MIC,Saccharomyces sp.,< 3 µg/mL
same,reduction in viability,[7],~99%
same,MIC,Erwina anylovora,< 0.5 µg/mL
same,MIC,Trichoderma virde,< 5 µg/mL
same,MIC,Chlorella pyrenoidosa; [12],4 to 16 µg/mL
same,MIC,"Chlorella pyrenoidosa; Table 3, nutrient-rich growth medium, algae, read-out: MIC",4 to 16 µg/mL
same,MIC,Xanthomonas palargonii,1 to 2 µg/mL
same,MIC,Asperillus niger,< 1 µg/mL
same,MIC,Erwina caratovora,0.5 to 1 µg/mL
same,MIC,[8],1 to 5 µg/mL
same,MIC,Rhizoctonia sp.,< 1 µg/mL
same,effectiveness in metal working fluids against bacteria,bacteria,effective
same,MIC,Alternaria solani,< 1 µg/mL
same,MIC,Erwina chysanthemi,0.5 to 1 µg/mL
same,MIC,"Baccilus megaterium; Table 1, Baccilus megaterium",5 to 10 µg/mL
same,MIC,[9],0.5 to 1 µg/mL
same,MIC,Staphylococcus aureus,3 to 7.6 µg/mL
same,Required Contact Time (99.9% reduction),"Pseudomonas aeruginosa [10]; 10 ppm, pH 7.0, Initial Cell Concentration 3.2 × 10^4",5 h
same,Required Contact Time (99.9% reduction),"Pseudomonas aeruginosa [10]; 10 ppm, pH 8.1, Initial Cell Concentration ~1.0 × 10^4",1 h
same,"disinfection rate, effect of pH","Pseudomonas aeruginosa [10]; 10 ppm, pH level of 8 compared to pH level of 7",faster at a pH level of 8
same,MIC,Pseudomonas aeruginosa [1]; [13],5 to 10 µg/mL
C=Cc1ccco1 [furylethylene],MIC,Chlorella pyrenoidosa; [12],250 to 1000 µg/mL
same,MIC,"Baccilus megaterium; Table 1, Baccilus megaterium",> 1000 µg/mL
same,MIC,Pseudomonas aeruginosa [1]; [13],> 1000 µg/mL
"O=[N+]([O-])C(Br)=Cc1ccccc1 [β-bromo-β-nitrostyrene, reference compound]","disinfection rate, effect of higher pH","Pseudomonas aeruginosa [10]; β-bromo-β-nitrostyrene, source of finding not stated",Increased disinfection rate with higher pH
